Data from article PMC3388095, “Fluorophore Labeled Kinase Detects Ligands That Bind within the MAPK Insert of p38α Kinase” (PLoS ONE, 2012).

Legend:
Assay in all cases: Kinase selectivity profile, 33P-ATP filter-binding assay
Assay type in all cases: biochemical
PRK2 = PRK2 (Homo sapiens, UniProt Q16513)
Outline: (§1)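 Radiometric filter assay (33P-ATP) within a 95-kinase selectivity screen; one concentration, 10 µM, gives % remaining activity.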

Lck = Lck (Homo sapiens, UniProt P06239)
Outline: as §1

p38α MAPK = p38α MAPK (Homo sapiens, UniProt Q16539)
Outline: as §1

PKA = PKA (Homo sapiens, UniProt P17612)
Outline: as §1

IRAK4 = IRAK4 (Homo sapiens, UniProt Q9NWZ3)
Outline: as §1

PIM1 = PIM1 (Homo sapiens, UniProt P11309)
Outline: as §1

HIPK3 = HIPK3 (Homo sapiens, UniProt Q9H422)
Outline: as §1

MARK2 = MARK2 (Homo sapiens, UniProt Q7KZI7)
Chain of MARK2 (Q7KZI7 whole entry): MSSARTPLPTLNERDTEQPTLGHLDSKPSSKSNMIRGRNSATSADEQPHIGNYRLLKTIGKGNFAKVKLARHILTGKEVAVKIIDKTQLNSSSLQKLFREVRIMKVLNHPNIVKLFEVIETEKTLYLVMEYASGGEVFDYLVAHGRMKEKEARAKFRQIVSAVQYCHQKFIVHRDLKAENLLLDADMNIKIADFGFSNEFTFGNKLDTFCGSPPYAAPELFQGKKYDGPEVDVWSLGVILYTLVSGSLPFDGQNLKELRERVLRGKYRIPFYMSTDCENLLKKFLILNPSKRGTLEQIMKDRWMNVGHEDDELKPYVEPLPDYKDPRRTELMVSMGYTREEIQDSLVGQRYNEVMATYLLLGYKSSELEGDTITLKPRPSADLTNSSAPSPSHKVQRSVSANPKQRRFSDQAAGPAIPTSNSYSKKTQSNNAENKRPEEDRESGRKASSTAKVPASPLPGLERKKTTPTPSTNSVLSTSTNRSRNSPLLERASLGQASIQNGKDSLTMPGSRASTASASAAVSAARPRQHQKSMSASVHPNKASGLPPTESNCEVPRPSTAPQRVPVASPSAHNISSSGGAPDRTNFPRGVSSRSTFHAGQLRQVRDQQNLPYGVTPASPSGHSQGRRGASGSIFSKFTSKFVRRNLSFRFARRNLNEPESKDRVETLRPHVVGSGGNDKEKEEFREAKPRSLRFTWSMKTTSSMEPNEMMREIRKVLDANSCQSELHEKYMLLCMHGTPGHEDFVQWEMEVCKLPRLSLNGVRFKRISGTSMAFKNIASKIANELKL
Outline: as §1

MNK2 = MNK2 (Homo sapiens, UniProt Q9HBH9)
Outline: as §1

PAK5 = PAK5 (Homo sapiens, UniProt Q9P286)
Chain of PAK5 (Q9P286 whole entry): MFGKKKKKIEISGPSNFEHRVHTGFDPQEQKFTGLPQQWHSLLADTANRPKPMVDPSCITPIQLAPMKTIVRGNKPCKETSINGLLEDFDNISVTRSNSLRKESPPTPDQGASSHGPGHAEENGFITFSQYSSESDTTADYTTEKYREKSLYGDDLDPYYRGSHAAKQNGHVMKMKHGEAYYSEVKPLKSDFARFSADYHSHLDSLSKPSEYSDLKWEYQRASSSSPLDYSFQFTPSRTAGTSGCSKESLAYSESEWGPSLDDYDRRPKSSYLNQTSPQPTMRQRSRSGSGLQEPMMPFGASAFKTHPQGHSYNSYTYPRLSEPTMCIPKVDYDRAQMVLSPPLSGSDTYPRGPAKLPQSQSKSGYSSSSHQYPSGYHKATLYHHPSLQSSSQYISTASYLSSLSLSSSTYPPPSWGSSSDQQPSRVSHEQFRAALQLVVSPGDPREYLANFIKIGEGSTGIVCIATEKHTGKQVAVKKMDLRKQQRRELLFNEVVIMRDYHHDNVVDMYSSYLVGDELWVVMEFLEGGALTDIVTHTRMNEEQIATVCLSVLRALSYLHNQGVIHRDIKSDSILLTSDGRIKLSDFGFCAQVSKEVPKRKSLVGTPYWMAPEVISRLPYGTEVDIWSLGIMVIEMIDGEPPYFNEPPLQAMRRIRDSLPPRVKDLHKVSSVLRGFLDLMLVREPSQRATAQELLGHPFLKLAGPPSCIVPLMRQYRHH
Outline: as §1

ROCK 2 = ROCK 2 (Rattus norvegicus, UniProt Q62868)
Chain of ROCK 2 (Q62868 2-543 limits assumed): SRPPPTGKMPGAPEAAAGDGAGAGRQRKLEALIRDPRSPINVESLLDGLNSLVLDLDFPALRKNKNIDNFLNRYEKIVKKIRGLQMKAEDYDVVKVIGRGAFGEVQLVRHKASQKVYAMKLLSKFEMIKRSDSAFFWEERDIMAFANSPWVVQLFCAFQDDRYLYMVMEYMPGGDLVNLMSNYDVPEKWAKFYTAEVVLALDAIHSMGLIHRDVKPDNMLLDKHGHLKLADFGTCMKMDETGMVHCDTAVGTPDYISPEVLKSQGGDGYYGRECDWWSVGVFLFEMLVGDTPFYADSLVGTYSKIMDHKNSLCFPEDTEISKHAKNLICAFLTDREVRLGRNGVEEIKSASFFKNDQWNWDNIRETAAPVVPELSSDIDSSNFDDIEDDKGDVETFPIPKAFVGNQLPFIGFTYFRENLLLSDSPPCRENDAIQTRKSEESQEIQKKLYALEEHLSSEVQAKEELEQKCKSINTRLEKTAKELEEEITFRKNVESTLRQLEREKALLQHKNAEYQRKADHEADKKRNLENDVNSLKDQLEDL
Outline: as §1

NUAK1 = NUAK1 (Homo sapiens, UniProt O60285)
Outline: as §1

CK2 = CK2 (Homo sapiens, UniProt P68400)
Chain of CK2 (P68400 whole entry): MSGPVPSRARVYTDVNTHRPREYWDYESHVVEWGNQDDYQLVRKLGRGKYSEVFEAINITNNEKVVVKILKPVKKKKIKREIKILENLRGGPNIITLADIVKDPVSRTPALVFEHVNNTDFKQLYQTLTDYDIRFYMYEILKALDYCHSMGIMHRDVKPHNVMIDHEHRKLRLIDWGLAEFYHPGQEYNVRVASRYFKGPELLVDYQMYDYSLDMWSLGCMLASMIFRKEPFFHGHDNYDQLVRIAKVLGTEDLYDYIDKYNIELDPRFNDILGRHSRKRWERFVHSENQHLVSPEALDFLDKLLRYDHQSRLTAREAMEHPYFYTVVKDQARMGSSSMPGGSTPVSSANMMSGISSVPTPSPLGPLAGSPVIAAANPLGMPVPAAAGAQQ
Outline: as §1

YES1 = YES1 (Homo sapiens, UniProt P07947)
Chain of YES1 (P07947 whole entry): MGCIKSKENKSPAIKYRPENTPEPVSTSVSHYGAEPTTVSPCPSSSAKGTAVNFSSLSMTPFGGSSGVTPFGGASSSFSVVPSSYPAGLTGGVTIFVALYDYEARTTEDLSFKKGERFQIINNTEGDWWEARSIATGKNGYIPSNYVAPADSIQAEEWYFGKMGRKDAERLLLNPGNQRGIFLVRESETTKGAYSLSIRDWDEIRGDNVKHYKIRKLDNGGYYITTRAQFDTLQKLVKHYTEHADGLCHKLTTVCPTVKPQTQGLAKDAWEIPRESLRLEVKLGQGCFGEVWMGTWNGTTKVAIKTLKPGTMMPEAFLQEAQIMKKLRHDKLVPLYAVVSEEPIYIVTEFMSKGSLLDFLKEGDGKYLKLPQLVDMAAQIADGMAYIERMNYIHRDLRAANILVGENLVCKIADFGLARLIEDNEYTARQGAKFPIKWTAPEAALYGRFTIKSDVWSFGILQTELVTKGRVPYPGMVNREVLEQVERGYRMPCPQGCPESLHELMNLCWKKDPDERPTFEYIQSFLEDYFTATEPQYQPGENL
Outline: as §1

PIM3 = PIM3 (Homo sapiens, UniProt Q86V86)
Outline: as §1

BTK = BTK (Homo sapiens, UniProt Q06187)
Outline: as §1

p38δ MAPK = p38δ MAPK (Homo sapiens, UniProt O15264)
Outline: as §1

MKK1 = MKK1 (Homo sapiens, UniProt Q02750)
Outline: as §1

ERK2 = ERK2 (Homo sapiens, UniProt P28482)
Outline: as §1

Aurora B = Aurora B (Homo sapiens, UniProt Q96GD4)
Outline: as §1

RSK2 = RSK2 (Homo sapiens, UniProt P51812)
Outline: as §1

RSK1 = RSK1 (Homo sapiens, UniProt Q15418)
Chain of RSK1 (Q15418 whole entry): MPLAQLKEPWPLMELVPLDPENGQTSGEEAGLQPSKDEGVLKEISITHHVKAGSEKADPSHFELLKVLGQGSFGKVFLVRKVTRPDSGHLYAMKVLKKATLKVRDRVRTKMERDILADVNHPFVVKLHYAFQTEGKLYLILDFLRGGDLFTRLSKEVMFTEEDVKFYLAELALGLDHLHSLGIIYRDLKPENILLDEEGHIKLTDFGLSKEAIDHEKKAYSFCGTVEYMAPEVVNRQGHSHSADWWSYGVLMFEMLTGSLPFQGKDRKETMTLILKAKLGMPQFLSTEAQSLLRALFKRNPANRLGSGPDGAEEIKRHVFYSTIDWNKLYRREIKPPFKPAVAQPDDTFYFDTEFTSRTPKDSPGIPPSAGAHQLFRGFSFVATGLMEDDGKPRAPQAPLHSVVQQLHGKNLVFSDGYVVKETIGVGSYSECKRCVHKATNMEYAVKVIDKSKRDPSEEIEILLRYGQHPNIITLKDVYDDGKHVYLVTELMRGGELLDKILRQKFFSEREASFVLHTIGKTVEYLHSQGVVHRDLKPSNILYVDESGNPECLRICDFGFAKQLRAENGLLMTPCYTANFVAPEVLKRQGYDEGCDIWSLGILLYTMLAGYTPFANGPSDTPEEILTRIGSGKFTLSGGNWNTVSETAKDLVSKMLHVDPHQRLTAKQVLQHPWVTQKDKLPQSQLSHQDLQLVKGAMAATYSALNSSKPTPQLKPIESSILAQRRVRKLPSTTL
Outline: as §1

VEG-FR = VEG-FR (Homo sapiens, UniProt P17948)
Chain of VEG-FR (P17948 27-1338): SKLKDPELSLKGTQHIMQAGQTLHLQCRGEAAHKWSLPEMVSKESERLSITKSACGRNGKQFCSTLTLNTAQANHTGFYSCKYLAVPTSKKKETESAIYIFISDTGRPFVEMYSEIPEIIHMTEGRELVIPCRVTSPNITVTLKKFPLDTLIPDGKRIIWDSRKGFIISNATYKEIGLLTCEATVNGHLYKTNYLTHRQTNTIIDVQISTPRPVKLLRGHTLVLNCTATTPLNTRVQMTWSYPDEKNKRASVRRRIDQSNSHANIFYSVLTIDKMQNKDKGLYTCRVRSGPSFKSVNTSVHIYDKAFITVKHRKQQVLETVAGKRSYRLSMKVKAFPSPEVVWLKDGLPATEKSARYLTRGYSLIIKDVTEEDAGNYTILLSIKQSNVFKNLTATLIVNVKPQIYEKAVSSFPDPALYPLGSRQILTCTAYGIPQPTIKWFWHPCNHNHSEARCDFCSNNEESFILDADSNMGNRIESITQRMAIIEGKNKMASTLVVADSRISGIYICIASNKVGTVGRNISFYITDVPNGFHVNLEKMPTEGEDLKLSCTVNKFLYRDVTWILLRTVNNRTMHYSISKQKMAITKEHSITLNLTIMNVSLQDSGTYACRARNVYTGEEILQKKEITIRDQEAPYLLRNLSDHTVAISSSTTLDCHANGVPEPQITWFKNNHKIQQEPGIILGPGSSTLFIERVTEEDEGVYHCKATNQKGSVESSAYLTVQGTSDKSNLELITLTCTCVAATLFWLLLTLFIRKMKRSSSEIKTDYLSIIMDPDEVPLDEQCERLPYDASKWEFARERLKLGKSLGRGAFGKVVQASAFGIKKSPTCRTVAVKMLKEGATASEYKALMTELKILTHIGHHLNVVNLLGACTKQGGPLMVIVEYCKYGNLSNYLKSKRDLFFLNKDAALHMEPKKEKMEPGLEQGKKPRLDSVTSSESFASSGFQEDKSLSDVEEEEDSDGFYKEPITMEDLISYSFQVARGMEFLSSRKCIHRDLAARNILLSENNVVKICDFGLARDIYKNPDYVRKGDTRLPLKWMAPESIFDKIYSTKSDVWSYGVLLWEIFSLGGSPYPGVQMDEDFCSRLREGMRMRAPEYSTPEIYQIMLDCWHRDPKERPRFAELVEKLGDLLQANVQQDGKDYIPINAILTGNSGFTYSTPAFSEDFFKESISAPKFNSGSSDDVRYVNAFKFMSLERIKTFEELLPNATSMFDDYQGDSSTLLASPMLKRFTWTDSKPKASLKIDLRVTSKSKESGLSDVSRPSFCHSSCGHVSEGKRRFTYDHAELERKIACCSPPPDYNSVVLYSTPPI
Outline: as §1

MELK = MELK (Homo sapiens, UniProt Q14680)
Outline: as §1

SmMLCK = SmMLCK (Homo sapiens, UniProt Q15746)
Outline: as §1

IGF-1R = IGF-1R (Homo sapiens, UniProt P08069)
Outline: as §1

PAK6 = PAK6 (Homo sapiens, UniProt Q9NQU5)
Outline: as §1

For Nc1ccc2c(NC3CC3)nc(-c3ccccc3)nc2c1 [1b, N^4-Cyclopropyl-2-phenyl-4,7-quinazolinediamine], the remaining activity at 10 µM (PRK2) was 103%, the remaining activity at 10 µM (Lck) was 80% and the remaining activity at 10 µM (p38α MAPK) was 88%. The remaining activity at 10 µM (PKA) was 104%, the remaining activity at 10 µM (IRAK4) was 97% and the remaining activity at 10 µM (PIM1) was 82%. The remaining activity at 10 µM (HIPK3) was 115%, the remaining activity at 10 µM (MARK2) was 100% and the remaining activity at 10 µM (MNK2) was 67%. The remaining activity at 10 µM (PAK5) was 88%, the remaining activity at 10 µM (ROCK 2) was 109% and the remaining activity at 10 µM (NUAK1) was 90%. The remaining activity at 10 µM (CK2) was 85%, the remaining activity at 10 µM (YES1) was 96% and the remaining activity at 10 µM (PIM3) was 77%. The remaining activity at 10 µM (BTK) was 87%, the remaining activity at 10 µM (p38δ MAPK) was 81% and the remaining activity at 10 µM (MKK1) was 75%. The remaining activity at 10 µM (ERK2) was 98%, the remaining activity at 10 µM (Aurora B) was 53% and the remaining activity at 10 µM (RSK2) was 98%. The remaining activity at 10 µM (RSK1) was 97%, the remaining activity at 10 µM (VEG-FR) was 95% and the remaining activity at 10 µM (MELK) was 85%. It also gave a remaining activity at 10 µM (SmMLCK) of 83%, a remaining activity at 10 µM (IGF-1R) of 81% and a remaining activity at 10 µM (PAK6) of 92%.
